In paper PMC5821110 (Cancer immunology research, 2017):

tested on: HLA-A2; assay: Peptide binding affinity: stabilization of HLA-A2 on TAP-deficient T2 cells; conditions: stabilization (normalized mean fluorescence intensity) of HLA-A2 on TAP-deficient T2 cells by test peptide relative to a non-binding peptide; six hours incubation; flow cytometry

First: FLQGISPKA [RF-IA]
Second: FLQGISPKI [RF]
The Observed relative binding of the first is lower: 4.78 for the first, 4.97 for the second.

Going from FLQGISPKV [RF-IV] to RAQGISPKI [LA], the Observed relative binding falls from 4.25 to 1.31.

Compared with RIQGISPKI [LI], RLQGISPKA [IA] is higher in Observed relative binding: 2.34 for the first, 3.79 for the second.

First: RLQGISPKI [Nat]
Second: RLQGISPKL [IL]
The Observed relative binding of the first is lower: 3.61 for the first, 3.89 for the second.

Compared with RLQGISPKP [IP], RLQGISPKV [IV] is higher in Observed relative binding: 1.07 for the first, 3.88 for the second.

tested on: E.G7-OVA PD-L1^high tumors; assay: Tumor treatment study: peptide immunization after OT-1 adoptive transfer; type: in vivo, C57BL/6 mice; conditions: tumors removed on day 40, flow cytometry; 100 µg peptide in CFA

SIINTEKL [FT] was tested, and the “Number of CD8 TILs (percent of CD45^+ cells) compared to high-affinity vaccination” value was “significantly increased”.
